Reference: paper PMC5626031, “Differential inhibition of adenylylated and deadenylylated forms of M. tuberculosis glutamine synthetase as a drug discovery platform” (PLoS ONE, 2017)
Where “and” joins values, the source holds several entries; their conditions need not be identical. Identical values can stand only once. Entries after “also recorded” stand apart in the source; their conditions may differ. Like-named read-outs stand apart in the source and are kept apart here.

Legend:
adenylylated MtbGS = target: T1, adenylylated MtbGS (Mycobacterium tuberculosis, UniProt P9WN39); assay: biochemical; type: biochemical, M. tuberculosis; conditions: for inhibition at 10 µM: 10μM final concentration; for Selectivity for adenylylated vs deadenylylated MtbGS: from % inhibition at 10μM of both enzyme forms
T1 construct: made in house; host or cells: E. coli YMC11E(DE3) with pTBSK and pTBglnE
T1 sequence (P9WN39 2-478 limits assumed): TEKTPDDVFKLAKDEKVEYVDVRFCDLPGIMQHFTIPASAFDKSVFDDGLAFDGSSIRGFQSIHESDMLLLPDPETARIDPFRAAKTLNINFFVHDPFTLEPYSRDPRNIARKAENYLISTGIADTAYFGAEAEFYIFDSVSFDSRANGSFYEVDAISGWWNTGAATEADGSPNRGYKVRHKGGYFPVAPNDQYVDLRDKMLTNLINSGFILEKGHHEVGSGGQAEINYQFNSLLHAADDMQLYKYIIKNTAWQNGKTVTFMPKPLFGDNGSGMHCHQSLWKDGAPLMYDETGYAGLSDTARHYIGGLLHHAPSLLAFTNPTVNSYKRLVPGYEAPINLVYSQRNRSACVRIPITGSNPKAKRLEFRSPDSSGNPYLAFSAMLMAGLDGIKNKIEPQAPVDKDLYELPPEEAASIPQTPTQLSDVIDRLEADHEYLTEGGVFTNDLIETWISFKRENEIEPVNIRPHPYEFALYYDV

deadenylylated MtbGS = target: T2, deadenylylated MtbGS (Mycobacterium tuberculosis, UniProt P9WN39); assay: biochemical; set-up: species or system M. tuberculosis; conditions: for inhibition at 10 µM: 10μM final concentration
T2 construct: made in house; host or cells: E. coli YMC11E with pTBSK
T2 sequence (P9WN39 2-478 limits assumed): as above

[1] = system: M.tb H37Rv reference strain; assay: BACTEC 460TB assay of mycobacterial growth; type: cell-based, Mycobacterium tuberculosis; conditions: for Activity against M.tb H37Rv, in words: 100 μM final concentration; for Growth inhibition of M.tb H37Rv (percentage of growth index): 100 μM, day 6 of incubation, relative to control cultures
[2] = system: M.tb (Beijing220) in mouse bone-marrow derived macrophages; assay: Intracellular M.tb in mouse bone-marrow derived macrophage assay; type: cell-based, Mycobacterium tuberculosis; conditions: for Activity against intracellular M.tb (Beijing220), in words / Percentage killing of intracellular M.tb (Beijing220), Fig 7: 100 μM; for Activity against intracellular M.tb (Beijing220), in words: Fig 7; for Percentage killing of intracellular M.tb (Beijing220), Fig 7: MOI 2:1, drug on day 4 post infection, harvest day 2 post drug, first experiment (8 selective compounds)
M. tuberculosis = conditions: both in vitro and in vivo; cited from earlier work
[3] = system: M.tb H37Rv reference strain (ATCC 25618); set-up: method as in PMID 9145860; conditions: approximately 10x higher than the minimal inhibitory concentrations; cited from earlier work
[4] = system: M.tb (Beijing220) clinical isolate; conditions: cited from earlier work
[5] = pre-incubation protocol, average over the 4 screens, read-out: Adenylated Mtb GS (% inhibition) AVG
[6] = pre-incubation protocol, screen 1, read-out: Adenylated Mtb GS (% inhibition) Screen 1
[7] = pre-incubation protocol, screen 2, read-out: Adenylated Mtb GS (% inhibition) Screen 2
[8] = pre-incubation protocol, screen 3, read-out: Adenylated Mtb GS (% inhibition) Screen 3
[9] = pre-incubation protocol, screen 4, read-out: Adenylated Mtb GS (% inhibition) Screen 4
[10] = pre-incubation protocol, average over the 4 screens, read-out: Deadenylated Mtb GS (% inhibition) AVG
[11] = pre-incubation protocol, screen 1, read-out: Deadenylated Mtb GS (% inhibition) Screen 1
[12] = pre-incubation protocol, screen 2, read-out: Deadenylated Mtb GS (% inhibition) Screen 2
[13] = pre-incubation protocol, screen 3, read-out: Deadenylated Mtb GS (% inhibition) Screen 3
[14] = pre-incubation protocol, screen 4, read-out: Deadenylated Mtb GS (% inhibition) Screen 4
[15] = dose-response assay, pre-incubation protocol, single assay values, read-out: IC50, adenylylated MtbGS
[16] = dose-response assay, enzyme form not given, read-out: IC50 concentration, MtbGS
[17] = dose-response assay, pre-incubation protocol, single assay values

Compound	inhibition at 10 µM (adenylylated MtbGS; [5])	inhibition at 10 µM (adenylylated MtbGS; [6])	inhibition at 10 µM (adenylylated MtbGS; [7])	inhibition at 10 µM (adenylylated MtbGS; [8])	inhibition at 10 µM (adenylylated MtbGS; [9])	inhibition at 10 µM (deadenylylated MtbGS; [10])	inhibition at 10 µM (deadenylylated MtbGS; [11])	inhibition at 10 µM (deadenylylated MtbGS; [12])	inhibition at 10 µM (deadenylylated MtbGS; [13])	inhibition at 10 µM (deadenylylated MtbGS; [14])	Activity against M.tb H37Rv, in words [1]	further results
NC(CCS(=O)(=O)O)C(=O)O (stereo not shown) [Compound 5]	38%	48%	33%	40%	29%	2%	0%	0%	6%	0%		
O=C(O)c1ccncc1 [Compound 5002]	45%	68%	40%	38%	35%	8%	0%	10%	8%	14%	no activity	
Nc1nc(N)c(NC(=O)c2ccccc2)c(O)n1 [Compound 5009]	40%	37%	50%	50%	22%	47%	57%	41%	44%	44%	no activity	
O=C1NC(C(=O)O)=C(C(=O)O)C(c2ccc([N+](=O)[O-])cc2)N1 (stereo not shown) [Compound 5012]	40%	55%	31%	32%	42%	15%	14%	16%	4%	24%	no activity	
Cc1nc(N)cc(C[n+]2csc(CCOP(=O)(O)O)c2C)n1 [Compound 5016]	43%	51%	43%	46%	30%	11%	7%	19%	3%	13%	no activity	
OCCNc1cc(N2CCCC2)ncn1 [Compound 5024]	43%	46%	48%	43%	36%	47%	49%	44%	52%	44%	no activity	
c1ccc(CNc2cc(N3CCCC3)ncn2)cc1 [Compound 5029]	60%	79%	46%	56%	60%	7%	5%	8%	7%	9%		Activity against intracellular M.tb (Beijing220), in words [2]: moderate activity; Percentage killing of intracellular M.tb (Beijing220), Fig 7 [2]: 67%; Growth inhibition of M.tb H37Rv (percentage of growth index) [1]: 66%; Selectivity for adenylylated vs deadenylylated MtbGS (adenylylated MtbGS): GS-adenylylated specific
O=NN(Cc1ccccc1)c1cc(N2CCCC2)ncn1 [Compound 5045]	0%	0%	0%	0%	0%	48%	44%	45%	54%	48%		Percentage killing of intracellular M.tb (Beijing220), Fig 8 ([2]; 100 μM for 2 days, second experiment at 10, 50 and 100 μM): 73%; Activity against intracellular M.tb (Beijing220), in words [2]: moderate activity; Percentage killing of intracellular M.tb (Beijing220), Fig 7 [2]: 64%; Growth inhibition of M.tb H37Rv (percentage of growth index) [1]: 98%; Selectivity for adenylylated vs deadenylylated MtbGS (adenylylated MtbGS): significant selectivity for the deadenylylated MtbGS; also recorded: deadenylylated selective; also recorded: specific to the de-adenylylated form of GS
Cc1cccc(C)c1Nc1c(C(C)C)nc2ccccn12 [Compound 10057]	99%	100%	99%	98%	100%	59%	67%	62%	47%	58%		Activity against intracellular M.tb (Beijing220), in words [2]: moderate activity; Percentage killing of intracellular M.tb (Beijing220), Fig 7 [2]: 65%; Growth inhibition of M.tb H37Rv (percentage of growth index) [1]: 53%; IC50 (adenylylated MtbGS; [15]): 3.51 µM and 15.6 µM; IC50 (adenylylated MtbGS; [16]): < 100 µM; Selectivity for adenylylated vs deadenylylated MtbGS (adenylylated MtbGS): GS-adenylylated specific
COc1ccc(-c2nc3ccccn3c2Nc2c(C)cccc2C)cc1OC [Compound 10059]	91%	82%	99%	82%	100%	44%	49%	48%	36%	43%		Activity against intracellular M.tb (Beijing220), in words [2]: moderate activity; Percentage killing of intracellular M.tb (Beijing220), Fig 7 [2]: 54%; IC50 (adenylylated MtbGS; [16]): < 100 µM; Selectivity for adenylylated vs deadenylylated MtbGS (adenylylated MtbGS): GS-adenylylated specific; IC50 (deadenylylated MtbGS; [17]): 13.2 µM and 17.1 µM
Nc1nc(O)c2ccccc2n1 [Compound 12004]	34%	39%	32%	33%	30%	42%	50%	43%	38%	38%	no activity	
CS(=N)(=O)CC[C@H](N)C(=O)O (stereo partly drawn) [MSO, L-methionine-S,R-sulphoximine, reference compound]												Adenylated Mtb GS (% inhibition) AVG (adenylylated MtbGS): 99%; Adenylated Mtb GS (% inhibition) Screen 1 (adenylylated MtbGS): 100%; Adenylated Mtb GS (% inhibition) Screen 2 (adenylylated MtbGS): 100%; Adenylated Mtb GS (% inhibition) Screen 3 (adenylylated MtbGS): 96%; Adenylated Mtb GS (% inhibition) Screen 4 (adenylylated MtbGS): 100%; IC50 (adenylylated MtbGS; read-out: IC50, adenylylated MtbGS): 0.16 µM; Growth of M. tuberculosis (M. tuberculosis): inhibits growth; Deadenylated Mtb GS (% inhibition) AVG (deadenylylated MtbGS): 100%; Deadenylated Mtb GS (% inhibition) Screen 1 (deadenylylated MtbGS): 100%; Deadenylated Mtb GS (% inhibition) Screen 2 (deadenylylated MtbGS): 100%; Deadenylated Mtb GS (% inhibition) Screen 3 (deadenylylated MtbGS): 99%; Deadenylated Mtb GS (% inhibition) Screen 4 (deadenylylated MtbGS): 100%; IC50 (deadenylylated MtbGS): 1.6 µM
CP(=O)(O)CC[C@H](N)C(=O)O [PhosT, phosphinotricin, reference compound]	98%	100%	95%	97%	100%	100%	100%	98%	100%	100%		IC50 (adenylylated MtbGS; [15]): 0.016 µM; IC50 (deadenylylated MtbGS; [17]): 0.83 µM
CC[C@@H](CO)NCCN[C@@H](CC)CO [ethambutol]												Breakpoint concentration to which the H37Rv strain was sensitive [3]: 9.4 µg/mL
NNC(=O)c1ccncc1 [isoniazid]												Susceptibility of the Beijing220 clinical isolate [4]: resistant; Breakpoint concentration to which the H37Rv strain was sensitive [3]: 0.25 µg/mL
CO[C@H]1/C=C/O[C@@]2(C)Oc3c(C)c(O)c4c(O)c(c(/C=N/N5CCN(C)CC5)c(O)c4c3C2=O)NC(=O)/C(C)=C\C=C\[C@H](C)[C@H](O)[C@@H](C)[C@@H](O)[C@@H](C)[C@H](OC(C)=O)[C@@H]1C [rifampicin]												Susceptibility of the Beijing220 clinical isolate [4]: resistant; Breakpoint concentration to which the H37Rv strain was sensitive [3]: 2.0 µg/mL
